Measured values as given in ChEMBL document CHEMBL4732239, “Novel molecule combinations and corresponding hybrids targeting artemisinin-resistant Plasmodium falciparum parasites” (Bioorg Med Chem Lett, 2021).
pIC50: −log10 of the molar value.

Tests used:
Plasmodium falciparum [1] = test: Antimalarial activity against artemisinin-sensitive Plasmodium falciparum F32-TEM by SYBR green dye based fluorescence assay; type: functional, organism-based
[2] = Cytotoxicity against African green monkey Vero cells assessed as inhibition of cell proliferation; type: cell-based; settings: chlorocebus sabaeus
[3] = Selective index, ratio of CC50 for African green monkey Vero cells to IC50 for plasmodium falciparum
Plasmodium falciparum [4] = test: Antimalarial activity against ring stage artemisinin-resistant Plasmodium falciparum F32-ART5 assessed as time taken for recrudescence by measuring parasitemia at 7 uM after 48 hrs; type: functional
Plasmodium falciparum [5] = test: Antimalarial activity against ring stage artemisinin-sensitive Plasmodium falciparum F32-TEM assessed as time taken for recrudescence by measuring parasitemia at 7 uM after 48 hrs; type: functional
Plasmodium falciparum [6] = test: Antimalarial activity against Plasmodium falciparum assessed as difference of time taken for recrudescence Plasmodium falciparum […] between ring stage artemisinin-sensitive Plasmodium falciparum F32-TEM measured at 7 uM after 48 hrs; type: functional
Plasmodium falciparum [7] = test: Antimalarial activity against ring stage artemisinin-resistant Plasmodium falciparum F32-ART5 assessed as time taken for recrudescence by measuring parasitemia pretreated with dihydroartemisinin for 6 hrs followed by treated at 7 uM for 48 hrs by Quiescent-stage Survival Assay; type: functional
Plasmodium falciparum [8] = test: Antimalarial activity against ring stage artemisinin-resistant Plasmodium falciparum F32-ART5 assessed as time taken for recrudescence by measuring parasitemia at 18 uM after 48 hrs; type: functional
Plasmodium falciparum [9] = test: Antimalarial activity against ring stage artemisinin-sensitive Plasmodium falciparum F32-TEM assessed as time taken for recrudescence by measuring parasitemia at 18 uM after 48 hrs; type: functional
Plasmodium falciparum [10] = test: Antimalarial activity against Plasmodium falciparum assessed as difference of time taken for recrudescence Plasmodium falciparum […] between ring stage artemisinin-sensitive Plasmodium falciparum F32-TEM measured at 18 uM after 48 hrs; type: functional
Plasmodium falciparum [11] = test: Antimalarial activity against ring stage artemisinin-resistant Plasmodium falciparum F32-ART5 assessed as time taken for recrudescence by measuring parasitemia at 1 uM after 48 hrs; type: functional
Plasmodium falciparum [12] = test: Antimalarial activity against ring stage artemisinin-sensitive Plasmodium falciparum F32-TEM assessed as time taken for recrudescence by measuring parasitemia at 1 uM after 48 hrs; type: functional
Plasmodium falciparum [13] = test: Antimalarial activity against Plasmodium falciparum assessed as difference of time taken for recrudescence Plasmodium falciparum F32-ART5 between ring stage artemisinin-sensitive Plasmodium falciparum F32-TEM measured at 1 uM after 48 hrs
Plasmodium falciparum [14] = test: Antimalarial activity against ring stage artemisinin-resistant Plasmodium falciparum F32-ART5 assessed as time taken for recrudescence by measuring parasitemia at 20 uM after 48 hrs; type: functional
Plasmodium falciparum [15] = test: Antimalarial activity against ring stage artemisinin-sensitive Plasmodium falciparum F32-TEM assessed as time taken for recrudescence by measuring parasitemia at 20 uM after 48 hrs; type: functional
Plasmodium falciparum [16] = test: Antimalarial activity against Plasmodium falciparum assessed as difference of time taken for recrudescence Plasmodium falciparum […] between ring stage artemisinin-sensitive Plasmodium falciparum F32-TEM measured at 20 uM after 48 hrs; type: functional
Plasmodium falciparum [17] = test: Antimalarial activity against ring stage artemisinin-resistant Plasmodium falciparum F32-ART5 assessed as time taken for recrudescence by measuring parasitemia pretreated with dihydroartemisinin for 6 hrs followed by treated at 200 nM for 48 hrs by Quiescent-stage Survival Assay; type: functional

Structure (SMILES)	pIC50 (Plasmodium falciparum [1])	CC50 [2]	Ratio CC50/IC50 [3]	Time (Plasmodium falciparum [4])	Time (Plasmodium falciparum [5])	Time (Plasmodium falciparum [6])	Time (Plasmodium falciparum [7])	Time (Plasmodium falciparum [12])	Time (Plasmodium falciparum [13])	further results
Cc1[nH]c(C)c(-c2ccc(Oc3ccc(OC(F)(F)F)cc3)cc2)c(=O)c1Cl	7.38	8000 nM	190	2 days	8 days	3 days	–	–	–	–
O=C(CCCCCCC(=O)Oc1cc(Cl)ccc1Oc1ccc(Cl)cc1Cl)OC1=C([C@H]2CC[C@H](c3ccc(Cl)cc3)CC2)C(=O)c2ccccc2C1=O	9.22	6000 nM	10000	9 days	12 days	4 days	10 days	–	–	–
Oc1cc(Cl)ccc1Oc1ccc(Cl)cc1Cl [TRICLOSAN]	–	25000 nM	5	5 days	6 days	–	7 days	–	–	–
C[C@@H]1CC[C@H]2[C@@H](C)C(=O)O[C@@H]3O[C@@]4(C)CC[C@@H]1[C@]32OO4 [ARTEMISININ]	7.74	–	–	–	–	–	–	–	–	Time (Plasmodium falciparum [8]): 9 days; Time (Plasmodium falciparum [9]): 22 days; Time (Plasmodium falciparum [10]): 12.5 days
O=C1C(O)=C([C@H]2CC[C@H](c3ccc(Cl)cc3)CC2)C(=O)c2ccccc21 [ATOVAQUONE]	8.68	500 nM	257	21 days	23 days	<=1 day	18 days	14 days	3 days	Time (Plasmodium falciparum [11]): 11 days
Cc1nc(C)c(-c2ccc(Oc3ccc(OC(F)(F)F)cc3)cc2)c(OC(=O)CCCCCCC(=O)Oc2cc(Cl)ccc2Oc2ccc(Cl)cc2Cl)c1Cl	6.77	> 120000 nM	>710	3 days	4 days	0.6 days	–	–	–	Time (Plasmodium falciparum [14]): 2 days; Time (Plasmodium falciparum [15]): 3 days; Time (Plasmodium falciparum [16]): 1 days
Cl.O=C(CCC(=O)O[C@H](c1cc(C(F)(F)F)nc2c(C(F)(F)F)cccc12)[C@@H]1CCCCN1)OC1=C([C@H]2CC[C@H](c3ccc(Cl)cc3)CC2)C(=O)c2ccccc2C1=O	9.22	4000 nM	6660	–	–	–	–	14 days	0 days	–
CCN(CC)CCCC(C)Nc1ccnc2cc(Cl)ccc12 (stereo unspecified) [CHLOROQUINE]	–	–	–	–	–	–	–	–	–	Time (Plasmodium falciparum [17]): 8 days
Cl.O=C(CCCC(=O)O[C@H](c1cc(C(F)(F)F)nc2c(C(F)(F)F)cccc12)[C@@H]1CCCCN1)OC1=C([C@H]2CC[C@H](c3ccc(Cl)cc3)CC2)C(=O)c2ccccc2C1=O	8.96	5000 nM	4545	–	–	–	–	14 days	0 days	–
O[C@@H](c1cc(C(F)(F)F)nc2c(C(F)(F)F)cccc12)[C@H]1CCCCN1 [(S,R)-MEFLOQUINE]	7.06	21000 nM	241	–	–	–	–	>30 days	–	–
